Experimental data reported in ChEMBL document CHEMBL1127215, “()-7-deazaaristeromycin lacking the hydroxymethyl substituent” (Bioorg Med Chem Lett, 1993).
Values after ≈ are worked out from the molar mass of the structure shown.

Key:
E6SM [1] = assay: Tested for antiviral activity against HSV-1 (KOS) in E6SM cells; type: functional; conditions: Homo sapiens
E6SM [2] = assay: Tested for antiviral activity against HSV-2 (G) in E6SM cells; type: functional; conditions: Homo sapiens
E6SM [3] = assay: Tested for antiviral activity against TK-HSV-1 (B2006) in E6SM cells; type: functional; conditions: Homo sapiens
E6SM [4] = assay: Tested for toxicity against morphology of E6SM cells; type: functional; conditions: Homo sapiens
HeLa [5] = assay: Tested for antiviral activity against respiratory syncytial (long) in HeLa cells; type: functional; conditions: Homo sapiens
HeLa [6] = assay: Tested for toxicity against morphology of HeLa cells; type: functional; conditions: Homo sapiens
HeLa [7] = assay: Tested for antiviral activity against coxsackie B4 in HeLa cells; type: functional; conditions: Homo sapiens
HEL [8] = assay: Tested for anti-HCMV activity using AD-169 and Davis strains in HEL cells; type: functional; conditions: Homo sapiens
HEL [9] = assay: Tested for effect on HEL cells growth viability for anti-HCMV activity; type: functional; conditions: Homo sapiens
MDCK = assay: Tested for toxicity against morphology of MDCK cells; type: functional; conditions: Canis lupus familiaris
MT4 [10] = assay: Tested for antiviral activity against HIV-1 (IIIB/LAI) in MT-4 cells; type: functional; conditions: Homo sapiens
MT4 [11] = assay: Tested for antiviral activity against HIV-2 (ROD) in MT-4 cells; type: functional; conditions: Homo sapiens
MT4 [12] = assay: Tested for toxicity against growth/viability of MT-4 cells; type: functional; conditions: Homo sapiens
Adenosylhomocysteinase = Adenosylhomocysteinase (Homo sapiens, UniProt P23526); assay: Tested for inhibitory concentration against S-adenosyl-homocysteine hydrolase
Adenosylhomocysteinase, sequence (P23526 whole entry): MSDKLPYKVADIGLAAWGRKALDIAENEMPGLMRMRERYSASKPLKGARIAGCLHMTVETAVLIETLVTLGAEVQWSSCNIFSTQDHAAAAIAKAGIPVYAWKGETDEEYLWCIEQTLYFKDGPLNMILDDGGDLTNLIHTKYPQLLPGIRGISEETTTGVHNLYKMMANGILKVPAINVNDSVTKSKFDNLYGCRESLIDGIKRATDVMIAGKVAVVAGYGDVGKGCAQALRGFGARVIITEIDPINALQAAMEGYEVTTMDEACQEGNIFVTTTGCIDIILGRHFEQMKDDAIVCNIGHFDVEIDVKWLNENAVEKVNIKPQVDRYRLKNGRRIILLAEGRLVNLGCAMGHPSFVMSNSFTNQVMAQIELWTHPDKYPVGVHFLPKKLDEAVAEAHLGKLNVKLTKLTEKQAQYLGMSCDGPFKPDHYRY

Vero [13] = assay: Tested for toxicity against morphology of vero cells; type: functional; conditions: Chlorocebus sabaeus
Vero [14] = assay: Tested for antiviral activity against Junin in vero cells; type: functional; conditions: Chlorocebus sabaeus
Vero [15] = assay: Tested for antiviral activity against forest in vero cells; type: functional; conditions: Chlorocebus sabaeus
Vero [16] = assay: Tested for antiviral activity against Sindbis in vero cells; type: functional; conditions: Chlorocebus sabaeus
Vero [17] = assay: Tested for antiviral activity against Tacaribe in vero cells; type: functional; conditions: Chlorocebus sabaeus
Vero [18] = assay: Tested for antiviral activity against coxsackie B4 in vero cells; type: functional; conditions: Chlorocebus sabaeus
Vero [19] = assay: Tested for antiviral activity against parainfluenza 3 (VR-93) in vero cells; type: functional; conditions: Chlorocebus sabaeus
Vero [20] = assay: Tested for antiviral activity against reo-1 in vero cells; type: functional; conditions: Chlorocebus sabaeus

`Nc1ncnc2c1ccn2C1CCC(O)C1O` (stereo not given) was tested, and the MIC50 (E6SM [1]) was > 200 µg/mL, the MIC50 (E6SM [2]) was > 200 µg/mL and the MIC50 (E6SM [3]) was > 200 µg/mL. For the same compound, the MIC50 (E6SM [4]) was > 200 µg/mL, the MIC50 (HeLa [5]) was > 100 µg/mL and the MIC50 (HeLa [6]) was > 200 µg/mL. The MIC50 (HeLa [7]) was > 200 µg/mL, the MIC50 (HEL [8]) was 18 µg/mL (≈ 76.8 µM) and the MIC50 (HEL [9]) was 130 µg/mL (≈ 555 µM). For the same compound, the MIC50 (MDCK) was > 100 µg/mL, the MIC50 (MT4 [10]) was > 130 µg/mL and the MIC50 (MT4 [11]) was > 130 µg/mL. The MIC50 (MT4 [12]) was > 130 µg/mL, the IC50 (Adenosylhomocysteinase) was > 100000 nM and the MIC50 (Vero [13]) was > 200 µg/mL. The MIC50 (Vero [14]) was 84 µg/mL (≈ 359 µM), the MIC50 (Vero [15]) was > 200 µg/mL and the MIC50 (Vero [16]) was > 200 µg/mL. For the same compound, the MIC50 (Vero [17]) was 64 µg/mL (≈ 273 µM), the MIC50 (Vero [18]) was > 200 µg/mL and the MIC50 (Vero [19]) was 150 µg/mL (≈ 640 µM). For the same compound, the MIC50 (Vero [20]) was > 200 µg/mL.

`Nc1ccnc2c1ncn2[C@@H]1C[C@H](CO)[C@@H](O)[C@H]1O` showed an IC50 (Adenosylhomocysteinase) of 18 nM.

Compound `Nc1ncnc2c1ncn2C[C@H](O)CO` [(S)-DHPA] has an IC50 (Adenosylhomocysteinase) of 280 nM.

With `Nc1ncnc2c1ncn2[C@@H]1C=C(CO)[C@@H](O)[C@H]1O` [NEOPLANOCIN A] the IC50 (Adenosylhomocysteinase) was 7.2 nM.
